In patent US20250179078A1, “INHIBITORS OF NLRP3” (PTC THERAPEUTICS, INC., priority 2022, published 2025):
pIC50: −log10 of the molar value.

Target: T1, NLRP3 (Homo sapiens, UniProt Q96P20)
T1 construct: host or cells: THP-1 cells differentiated with PMA
Test: IL-1β Secretion Assay (NLRP3-dependent IL1β secretion in THP1 cells)
Assay type: cell-based
Settings: PMA-differentiated THP-1 cells; compounds incubated 20 h; 2.5 μM Nigericin 3 h; HTRF IL-1β readout; read-out: IC50 IL-1β Inhibition
Summary of the method: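 IL-1β in conditioned media, measured by HTRF after 3 h 2.5 μM nigericin stimulation, gave % inhibition fitted logistically for IC50. Before that, PMA-differentiated (100 ng/mL, 24 h) THP-1 cells were preincubated 20 h with 7 compound concentrations (3-fold serial, DMSO 1:200).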

T1 sequence (Q96P20 whole entry): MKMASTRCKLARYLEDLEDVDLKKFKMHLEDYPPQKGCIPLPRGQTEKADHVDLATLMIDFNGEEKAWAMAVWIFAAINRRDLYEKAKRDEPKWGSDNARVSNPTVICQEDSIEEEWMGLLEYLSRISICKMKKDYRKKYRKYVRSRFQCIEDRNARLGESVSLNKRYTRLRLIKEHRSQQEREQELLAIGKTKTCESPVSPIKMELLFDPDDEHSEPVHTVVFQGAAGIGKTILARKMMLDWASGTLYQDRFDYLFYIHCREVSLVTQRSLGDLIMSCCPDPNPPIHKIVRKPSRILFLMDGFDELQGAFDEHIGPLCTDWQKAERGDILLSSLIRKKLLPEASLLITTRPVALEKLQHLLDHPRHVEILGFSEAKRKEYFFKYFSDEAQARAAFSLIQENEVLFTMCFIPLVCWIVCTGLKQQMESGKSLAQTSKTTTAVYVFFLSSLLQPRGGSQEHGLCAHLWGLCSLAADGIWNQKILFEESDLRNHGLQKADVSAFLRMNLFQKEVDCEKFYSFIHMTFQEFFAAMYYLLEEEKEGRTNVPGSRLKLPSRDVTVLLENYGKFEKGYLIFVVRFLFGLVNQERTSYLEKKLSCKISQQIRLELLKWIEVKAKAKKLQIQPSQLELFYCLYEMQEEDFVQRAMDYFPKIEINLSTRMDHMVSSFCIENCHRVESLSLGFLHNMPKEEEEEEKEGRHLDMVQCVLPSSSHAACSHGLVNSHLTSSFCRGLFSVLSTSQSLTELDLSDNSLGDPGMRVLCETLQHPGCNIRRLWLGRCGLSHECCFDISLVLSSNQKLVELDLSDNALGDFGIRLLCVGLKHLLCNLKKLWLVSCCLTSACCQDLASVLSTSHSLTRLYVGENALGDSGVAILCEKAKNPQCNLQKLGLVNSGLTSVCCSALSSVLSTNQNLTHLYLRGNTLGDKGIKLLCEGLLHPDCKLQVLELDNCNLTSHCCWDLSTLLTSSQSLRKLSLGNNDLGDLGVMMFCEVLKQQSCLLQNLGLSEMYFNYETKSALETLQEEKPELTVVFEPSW

Compound | pIC50
C[C@]1(O)C[C@@H](Nc2nnc(-c3ccc(Br)cc3OC(F)F)c3cncn23)C1 [Compound 199, (1s,3s)-3-({1-[4-bromo-2-(difluoromethoxy)phenyl]imidazo[1,5-d][1,2,4]triazin-4-yl}amino)-1-methylcyclobutan-1-ol] | 8.00 to 9.00
Cc1ccc(-c2nnc(N[C@@H]3CCCN(C)C3)n3cncc23)c(OC(F)F)c1 [Compound 202, 1-[2-(difluoromethoxy)-4-methylphenyl]-N-[(3R)-1-methylpiperidin-3-yl]imidazo[1,5-d][1,2,4]triazin-4-amine] | 8.00 to 9.00
CN1CCC[C@@H](Nc2nnc(-c3ccc(C4CC4)cc3OC(F)F)c3cncn23)C1 [Compound 203, 1-[4-cyclopropyl-2-(difluoromethoxy)phenyl]-N-[(3R)-1-methylpiperidin-3-yl]imidazo[1,5-d][1,2,4]triazin-4-amine] | > 9.00
COc1ccc(-c2nnc(N[C@@H]3CCCN(C)C3)n3cncc23)c(OC(F)(F)F)c1 [Compound 208, 1-[4-methoxy-2-(trifluoromethoxy)phenyl]-N-[(3R)-1-methylpiperidin-3-yl]imidazo[1,5-d][1,2,4]triazin-4-amine] | > 9.00
COc1ccc(-c2nnc(N[C@@H]3CCCN(CCO)C3)n3cncc23)c(OC(F)(F)F)c1 [Compound 211, 2-[(3R)-3-({1-[4-methoxy-2-(trifluoromethoxy)phenyl]imidazo[1,5-d][1,2,4]triazin-4-yl}amino)piperidin-1-yl]ethan-1-ol] | > 9.00
COc1ccc(-c2nnc(N[C@@H]3CCCN(C)C3)n3cncc23)c(OC(F)F)c1 [Compound 216, 1-[2-(difluoromethoxy)-4-methoxyphenyl]-N-[(3R)-1-methylpiperidin-3-yl]imidazo[1,5-d][1,2,4]triazin-4-amine] | 8.00 to 9.00
C[C@]1(O)C[C@@H](Nc2nnc(-c3ccc(C(F)(F)F)cc3C(F)(F)F)c3cncn23)C1 [Compound 218, (1s,3s)-3-({1-[2,4-bis(trifluoromethyl)phenyl]imidazo[1,5-d][1,2,4]triazin-4-yl}amino)-1-methylcyclobutan-1-ol] | 8.00 to 9.00
COc1ccc(-c2nnc(N[C@H]3C[C@@](C)(O)C3)n3cncc23)c(OC(F)(F)F)c1 [Compound 219, (1s,3s)-3-({1-[4-methoxy-2-(trifluoromethoxy)phenyl]imidazo[1,5-d][1,2,4]triazin-4-yl}amino)-1-methylcyclobutan-1-ol] | 8.00 to 9.00
COc1ccc(-c2nnc(Nc3cc[nH]n3)n3cncc23)c(OC(F)(F)F)c1 [Compound 220, 1-[4-methoxy-2-(trifluoromethoxy)phenyl]-N-(1H-pyrazol-3-yl)imidazo[1,5-d][1,2,4]triazin-4-amine] | 6.52 to 7.00
COc1ccc(-c2nnc(N[C@@H]3CCC[C@H]3O)n3cncc23)c(OC(F)(F)F)c1 [Compound 221, (1R,2R)-2-({1-[4-methoxy-2-(trifluoromethoxy)phenyl]imidazo[1,5-d][1,2,4]triazin-4-yl}amino)cyclopentan-1-ol] | 7.00 to 8.00
COc1ccc(-c2nnc(N[C@@H]3CCC[C@H](O)C3)n3cncc23)c(OC(F)(F)F)c1 [Compound 222, (1S,3R)-3-({1-[4-methoxy-2-(trifluoromethoxy)phenyl]imidazo[1,5-d][1,2,4]triazin-4-yl}amino)cyclohexan-1-ol] | 8.00 to 9.00
COc1ccc(-c2nnc(N[C@@H]3CCCC[C@H]3O)n3cncc23)c(OC(F)(F)F)c1 [Compound 223, (1R,2R)-2-({1-[4-methoxy-2-(trifluoromethoxy)phenyl]imidazo[1,5-d][1,2,4]triazin-4-yl}amino)cyclohexan-1-ol] | 8.00 to 9.00
COc1ccc(-c2nnc(N[C@@H]3C[C@@H](F)CN(C)C3)n3cncc23)c(OC(F)F)c1 [Compound 224, 1-[2-(difluoromethoxy)-4-methoxyphenyl]-N-[(3R,5R)-5-fluoro-1-methylpiperidin-3-yl]imidazo[1,5-d][1,2,4]triazin-4-amine] | 8.00 to 9.00
COc1ccc(-c2nnc(N[C@@H]3CCCN(CCO)C3)n3cncc23)c(OC(F)F)c1 [Compound 225, 2-[(3R)-3-({1-[2-(difluoromethoxy)-4-methoxyphenyl]imidazo[1,5-d][1,2,4]triazin-4-yl}amino)piperidin-1-yl]ethan-1-ol] | 8.00 to 9.00
COc1ccc(-c2nnc(N[C@H]3C[C@@](C)(O)C3)n3cncc23)c(OC(F)F)c1 [Compound 226, (1s,3s)-3-({1-[2-(difluoromethoxy)-4-methoxyphenyl]imidazo[1,5-d][1,2,4]triazin-4-yl}amino)-1-methylcyclobutan-1-ol] | 7.00 to 8.00
COc1ccc(-c2nnc(Nc3cc[nH]n3)n3cncc23)c(OC(F)F)c1 [Compound 227, 1-[2-(difluoromethoxy)-4-methoxyphenyl]-N-(1H-pyrazol-3-yl)imidazo[1,5-d][1,2,4]triazin-4-amine] | 7.00 to 8.00
COc1ccc(-c2nnc(Nc3cc[nH]n3)n3cncc23)c(C(F)(F)F)c1 [Compound 228, 1-[4-methoxy-2-(trifluoromethyl)phenyl]-N-(1H-pyrazol-3-yl)imidazo[1,5-d][1,2,4]triazin-4-amine] | 7.00 to 8.00
COc1cccc(C(C)Nc2nnc(-c3ccc(OC)cc3OC(F)(F)F)c3cncn23)c1 (stereo not drawn) [Compound 230, N-[1-(3-methoxyphenyl)ethyl]-1-[4-methoxy-2-(trifluoromethoxy)phenyl]imidazo[1,5-d][1,2,4]triazin-4-amine] | ≤ 6.52
COc1ccc(-c2nnc(NC(C)c3ccccc3)n3cncc23)c(OC(F)(F)F)c1 (stereo not drawn) [Compound 231, 1-[4-methoxy-2-(trifluoromethoxy)phenyl]-N-(1-phenylethyl)imidazo[1,5-d][1,2,4]triazin-4-amine] | ≤ 6.52

Other lines, results leading:

pIC50 | Compound
8.00 to 9.00 | CN1CCC[C@@H](Nc2nnc(-c3ccc(Br)cc3C(F)(F)F)c3cncn23)C1 [Compound 200, 1-[4-bromo-2-(trifluoromethyl)phenyl]-N-[(3R)-1-methylpiperidin-3-yl]imidazo[1,5-d][1,2,4]triazin-4-amine]
8.00 to 9.00 | OCCN1CCC[C@@H](Nc2nnc(-c3ccc(Br)cc3C(F)(F)F)c3cncn23)C1 [Compound 201, 2-[(3R)-3-({1-[4-bromo-2-(trifluoromethyl)phenyl]imidazo[1,5-d][1,2,4]triazin-4-yl}amino)piperidin-1-yl]ethan-1-ol]
8.00 to 9.00 | C[C@]1(O)C[C@@H](Nc2nnc(-c3ccc(Br)cc3C(F)(F)F)c3cncn23)C1 [Compound 204, (1s,3s)-3-({1-[4-bromo-2-(trifluoromethyl)phenyl]imidazo[1,5-d][1,2,4]triazin-4-yl}amino)-1-methylcyclobutan-1-ol]
7.00 to 8.00 | CCN1C[C@H](F)C[C@@H](Nc2nnc(-c3ccc(Br)cc3C(F)(F)F)c3cncn23)C1 [Compound 205, 1-[4-bromo-2-(trifluoromethyl)phenyl]-N-[(3R,5R)-1-ethyl-5-fluoropiperidin-3-yl]imidazo[1,5-d][1,2,4]triazin-4-amine]
> 9.00 | Cc1ccc(-c2nnc(N[C@@H]3CCCN(C)C3)n3cncc23)c(C(F)(F)F)c1 [Compound 206, N-[(3R)-1-methylpiperidin-3-yl]-1-[4-methyl-2-(trifluoromethyl)phenyl]imidazo[1,5-d][1,2,4]triazin-4-amine]
> 9.00 | CN1CCC[C@@H](Nc2nnc(-c3ccc(C4CC4)cc3C(F)(F)F)c3cncn23)C1 [Compound 207, 1-[4-cyclopropyl-2-(trifluoromethyl)phenyl]-N-[(3R)-1-methylpiperidin-3-yl]imidazo[1,5-d][1,2,4]triazin-4-amine]
> 9.00 | CCN1CCC[C@@H](Nc2nnc(-c3ccc(OC)cc3OC(F)(F)F)c3cncn23)C1 [Compound 209, N-[(3R)-1-ethylpiperidin-3-yl]-1-[4-methoxy-2-(trifluoromethoxy)phenyl]imidazo[1,5-d][1,2,4]triazin-4-amine]
8.00 to 9.00 | COc1ccc(-c2nnc(N[C@@H]3C[C@@H](F)CN(C)C3)n3cncc23)c(OC(F)(F)F)c1 [Compound 210, N-[(3R,5R)-5-fluoro-1-methylpiperidin-3-yl]-1-[4-methoxy-2-(trifluoromethoxy)phenyl]imidazo[1,5-d][1,2,4]triazin-4-amine]
> 9.00 | CCN1CCC[C@@H](Nc2nnc(-c3ccc(OC)cc3C(F)(F)F)c3cncn23)C1 [Compound 212, N-[(3R)-1-ethylpiperidin-3-yl]-1-[4-methoxy-2-(trifluoromethyl)phenyl]imidazo[1,5-d][1,2,4]triazin-4-amine]
8.00 to 9.00 | COc1ccc(-c2nnc(N[C@@H]3CCCN(CCO)C3)n3cncc23)c(C(F)(F)F)c1 [Compound 213, 2-[(3R)-3-({1-[4-methoxy-2-(trifluoromethyl)phenyl]imidazo[1,5-d][1,2,4]triazin-4-yl}amino)piperidin-1-yl]ethan-1-ol]
8.00 to 9.00 | COc1ccc(-c2nnc(N[C@H]3C[C@@](C)(O)C3)n3cncc23)c(C(F)(F)F)c1 [Compound 214, (1s,3s)-3-({1-[4-methoxy-2-(trifluoromethyl)phenyl]imidazo[1,5-d][1,2,4]triazin-4-yl}amino)-1-methylcyclobutan-1-ol]
7.00 to 8.00 | O[C@H]1CCC[C@@H](Nc2nnc(-c3ccc(C(F)(F)F)cc3C(F)(F)F)c3cncn23)C1 [Compound 215, (1S,3R)-3-({1-[2,4-bis(trifluoromethyl)phenyl]imidazo[1,5-d][1,2,4]triazin-4-yl}amino)cyclohexan-1-ol]
> 9.00 | CN1CCC[C@@H](Nc2nnc(-c3ccc(C(F)(F)F)cc3C(F)(F)F)c3cncn23)C1 [Compound 217, 1-[2,4-bis(trifluoromethyl)phenyl]-N-[(3R)-1-methylpiperidin-3-yl]imidazo[1,5-d][1,2,4]triazin-4-amine]
> 9.00 | CCN1CCC[C@@H](Nc2nnc(-c3ccc(C(F)(F)F)cc3OC(F)(F)F)c3cncn23)C1 [Compound 229, N-[(3R)-1-ethylpiperidin-3-yl]-1-[2-(trifluoromethoxy)-4-(trifluoromethyl)phenyl]imidazo[1,5-d][1,2,4]triazin-4-amine]
